Reference: patent US9598419B1, “Imidazotriazine and imidazodiazine compounds” (Universite de Montreal, priority 2014, dated 2017)
Each block holds one compound with its values, some of them ahead of it.

What was measured:
[1] = biological target: T1, PAR4 (Homo sapiens, UniProt Q96RI0); assay: washed platelet aggregation assay (PAR4 agonist peptides); format: cell-based; settings: washed platelets
T1 construct: PRP was isolated by centrifugation at 170 g for 14 minutes and platelets were further pelleted; from tissue; host or cells: human washed platelets
T1 sequence (Q96RI0 18-385): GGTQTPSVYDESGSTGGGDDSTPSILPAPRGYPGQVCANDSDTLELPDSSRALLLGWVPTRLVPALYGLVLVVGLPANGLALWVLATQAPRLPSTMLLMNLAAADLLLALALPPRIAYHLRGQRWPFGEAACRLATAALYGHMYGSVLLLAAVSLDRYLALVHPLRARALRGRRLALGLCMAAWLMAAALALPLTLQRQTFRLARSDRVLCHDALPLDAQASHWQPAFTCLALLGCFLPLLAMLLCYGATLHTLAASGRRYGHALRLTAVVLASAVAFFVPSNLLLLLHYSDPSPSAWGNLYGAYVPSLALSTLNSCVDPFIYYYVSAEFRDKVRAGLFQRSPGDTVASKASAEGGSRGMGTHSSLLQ
Method: Human blood was collected in ACD (85 mM tri-sodium citrate, 78 mM citric acid, 110 mM D-glucose, pH 4.4) at a ratio of 1.4 ml per 10 ml blood. PRP was isolated by centrifugation at 170 g for 14 minutes and platelets were further pelleted by centrifugation at 1300 g for 6 minutes. Platelets were washed once with 10 ml ACD containing 1 mg/ml bovine serum albumin Platelets were resuspended at ˜2.5×10^8/ml in Tyrode's Buffer (137 mM NaCl, 2 mM KCl, 1.0 mM MgCl2, 1 mM CaCl2, 5 mM glucose, 20 mM HEPES pH 7.4).

[2] = biological target: T2, protease-activated receptor type 4 (PAR4) (Homo sapiens, UniProt Q96RI0); settings: quoted from the abstract; cited from earlier work
T2 sequence (Q96RI0 18-385): T1 sequence (Q96RI0 18-385)

[3] = biological target: T3, PAR1 (Homo sapiens, UniProt P25116); settings: ACS patients, phase III; cited from earlier work
T3 construct: host or cells: ACS patients (clinical trial)
T3 sequence (P25116 22-425): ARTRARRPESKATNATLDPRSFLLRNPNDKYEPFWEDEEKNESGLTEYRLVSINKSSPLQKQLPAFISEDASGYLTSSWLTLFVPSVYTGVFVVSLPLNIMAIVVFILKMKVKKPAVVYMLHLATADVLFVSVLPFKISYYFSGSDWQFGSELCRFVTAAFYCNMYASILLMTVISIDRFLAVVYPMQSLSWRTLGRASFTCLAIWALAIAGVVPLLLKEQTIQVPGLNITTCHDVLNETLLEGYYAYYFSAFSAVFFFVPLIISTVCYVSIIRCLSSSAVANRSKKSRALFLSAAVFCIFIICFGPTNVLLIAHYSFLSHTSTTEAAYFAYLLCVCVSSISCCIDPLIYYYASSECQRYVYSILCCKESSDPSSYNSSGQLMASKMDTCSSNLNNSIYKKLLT

EC50 [1]: 12 µM
Structure (SMILES): C[C@H](N)C(=O)N[C@@H](Cc1ccc(O)cc1)C(=O)N1CCC[C@H]1C(=O)NCC(=O)N[C@@H](CCCCN)C(=O)N[C@@H](Cc1ccccc1)C(=O)O [AYPGKF]

Structure (SMILES): CCOC(=O)c1ccc(-c2nn(Cc3ccccc3)c3ccccc23)cc1 [ethyl 4-(1-benzyl-1H-indazol-3-yl)benzoate]
inhibition of PAR4-dependent platelet activation [2]: selective and potent inhibitor

Structure (SMILES): CCOC(=O)N[C@@H]1CC[C@@H]2[C@@H](C1)C[C@H]1C(=O)O[C@H](C)[C@H]1[C@H]2/C=C/c1ccc(-c2cccc(F)c2)cn1 [vorapaxar]
cardiovascular events [3]: did not significantly reduce | risk of major bleeding [3]: significantly increased
